The values that follow come from patent US9061010B2, “Methods of treating a Flaviviridae family viral infection and compositions for treating a Flaviviridae family viral infection” (The Board of Trustees of the Leland Stanford Junior …, priority 2007, dated 2015).

“Also recorded” adds a separate entry of the source.

The conditions of series [1]: cited from earlier work.
The test system of series [2] is W55R mutant J6/JFH RNA. The experiment in a line: Luciferase reporter-linked replication assay, W55R mutant. Format: cell-based, Hepatitis C Virus. The following applies: 10 μM clemizole; whole cell RNA or in vitro-transcribed RNA. From the text:
Two of the clemizole-resistant NS4B mutants were characterized in detail. The first, W55R is depicted in FIG. 9a. It involves the substitution of an arginine for the tryptophan at amino acid 55 within a predicted cytoplasmically-oriented segment of NS4B. This mutation is sufficient to confer a clemizole-resistant phenotype in cells: Huh7.5 cells transfected with either whole cell RNA extracted from the W55R mutant cells (FIG. 9b) or with in vitro-transcribed J6/JFH RNA encoding this point mutation and a linked luciferase reporter gene (FIG. 9c) were unaffected by 10 μM clemizole.
The plasmid FL-J6/JFH-5′C19Rluc2AUbi that consists of the full-length HCV genome and expresses Renilla luciferase was a gift from Dr. Charles M. Rice^28. The W55R mutation was introduced into this plasmid by site-directed mutagenesis (using the QuikChange kit (Stratagene)).
(§1) Medium was changed daily.
Whole cell RNA was extracted from clemizole-resistant replicon clones and from untreated replicon cells using TRIzol reagent (Invitrogen). Equal amounts of whole cell RNA (50 μg) were electroporated into Huh7.5 cells as described above. Cells were grown under G418 selection in the presence or absence of clemizole for 3 weeks. The number of colonies was determined using Image J (NIH) following fixation and staining with Crystal violet.

The target in series [3] is T1, HuR protein (Homo sapiens, UniProt Q15717).
T1 construct: made in house; […]
The experiment in a line: Microfluidic RNA binding assay of HuR (specificity of hits). To be noted: 0.1 mM. From the text:
For each experiment, an image was taken after MITOMI and the final PBS wash. This was used to determine the concentration of surface bound protein (FITC channel) as well as surface bound target RNA (Cy3 channel). […] Data from multiple data points were averaged, and their standard deviations calculated. Results were then normalized to 1. Between 10-20 replicates were included for each probe tested. A control protein, Gus-his (Roche) was included in each experiment and subjected to the same analysis. When present, detected signal with Gus-his was used for background subtraction.
Specificity of hits identified in the small molecule screen: To determine the specificity of the hits identified in the small molecule screen, the HuR protein (one of the human RNA binding protein used to validate our RNA binding assay) was selected. […] Binding of HuR to the consensus 4A RNA sequence was tested in the presence of the inhibitory molecules shown to inhibit RNA binding by NS4B. […] Similarly, 0.1 mM of the identified compounds didn't have an inhibitory effect on binding of HuR to the 3′ terminus of the negative HCV RNA strand.

Series [4] relates to HCV (genotype 4). The experiment in a line: Treatment of patients chronically infected with HCV, serum HCV viral load. Format: in vivo, human. The method, then:
Three patients chronically-infected with HCV (genotype 4) were treated in accordance with an embodiment of the method of the invention. All were male and had baseline ALT elevations and significant HCV viral loads ranging from 290,000-730,000 IU/ml.
After the first four weeks of clemizole monotherapy, pegylated interferon (180 micrograms Pegasus (Roche) s.q. per week) was added.

The conditions of series [5]: cited from earlier work. This is another data set of the same source.
Series [6] deals with HCV RNA replication (full-length luciferase reporter-linked HCV genome). Briefly: Luciferase reporter-linked HCV replication assay in Huh7.5 cells. It counts as cell-based, Hepatitis C Virus. The method, then:
For example, HCV replication assays employing a luciferase reporter-linked HCV genome in the presence of various combinations of clemizole and an NS3 protease inhibitor (SCH503034) are shown in FIGS. 1A and 1B. In such assays, luciferase activity is directly proportional to HCV RNA genome replication. […] The results can be plotted on a linear or log scale as a function of drug concentrations to generate replication inhibition curves.
Luciferase assays were performed at 72 hr.
as §1
The experiment was repeated four times, each time with triplicates.
A general note: A reporter such as luciferase makes a cellular process visible.

Series [7] has as its target HCV NS4B binding to the 3′ terminus of the HCV negative strand RNA (Hepatitis C virus genotype 1a, UniProt P27958). The experiment in a line: Microfluidic (MITOMI) in vitro RNA binding assay of NS4B. The following applies: 10 nM clemizole.
Series [8] concerns Huh7.5 cells. The experiment in a line: Alamar Blue viability assay. The following applies: HCV-infected Huh7.5 cells, 72 hours, FIG. 15. As to the method: Huh-7.5 cells were maintained in Dulbecco's modified minimal essential medium (Gibco) supplemented with 1% L-glutamine (Gibco), 1% penicillin, 1% streptomycin (Gibco), 1× nonessential amino acids (Gibco) and 10% fetal bovine serum (Omega Scientific). Cell lines were passaged twice weekly after treatment with 0.05% trypsin-0.02% EDTA and seeding at a dilution of 1:5. Subconfluent Huh-7.5 cells were trypsinized and collected by centrifugation at 700 g for 5 min. The cells were then washed three times in ice-cold RNase-free PBS (BioWhittaker) and resuspended at 1.5*10^7 cells/ml in PBS. Wild type or mutant FL-J6/JFH-5′C19Rluc2AUbi RNA for electroporation was generated by in vitro transcription of XbaI-linearized DNA templates using the T7 MEGAscript kit (Ambion), followed by purification, essentially as described above (In vitro RNA transcription and fluorescent labeling). 5 μg of RNA was mixed with 400 μl of washed Huh-7.5 cells in a 2 mm-gap cuvette (BTX) and immediately pulsed (0.82 kV, five 99 μs pulses) with a BTX-830 electroporator. After a 10 min recovery at 25° C., pulsed cells were diluted into 10 ml of prewarmed growth medium. Cells from several electroporations were pooled to a common a stock and seeded in 6 well plates (5*10^5 cells per well). After 24 hr, medium was replaced and cells were grown in the presence of serial dilutions of the various inhibitory compounds (Sigma) identified in the screen. […] Untreated cells were used as a negative control for water soluble compounds. For compounds solubilized in DMSO, untreated cells were grown in the presence of corresponding concentrations of the solvent as a negative control. Medium was changed daily. After 72 hr of treatment, cells were subjected to an alamar blue based viability assay and luciferase assay.
Following 72 hrs of treatment, cells were incubated for 3 hrs at 37° C. in the presence of 10% Alamar Blue reagent (TREK Diagnostic Systems).

Series [9] addresses T2, W55R NS4B mutant binding to HCV RNA (Hepatitis C virus genotype 1a, UniProt P27958, A1893V/D1840G/F1898S/L1839I/R1905H/S1900A/W1766R).
T2 construct: made in house; host or cells: coupled transcription/translation rabbit reticulocyte system (Promega) with canine microsomal membranes
The experiment in a line: Microfluidic in vitro RNA binding assay, W55R NS4B mutant. The following applies: 10 nM clemizole. From the text:
This mutation was also introduced into the NS4B-GFP vector and the resulting vector tested for its RNA binding activity using the in vitro microfluidic assay of the invention.
The plasmid pcDNA-NS4B-GFP encoding NS4B of genotype 1a fused in frame with a C-terminal GFP was previously described^5. The mutations RRa, RRb and W55R were introduced into this plasmid by site-directed mutagenesis (using the QuikChange kit (Stratagene)). The plasmid NS5A(AH)GFP was constructed as previously reported. Gus-his vector was obtained from Roche.

Take `Clc1ccc(Cn2c(CN3CCCC3)nc3ccccc32)cc1` [clemizole]: the “drowsiness, share of patients treated” value in series [1] (Zierz and Greither) is 1.3%. In addition, the patients with drowsiness in series [1] (human, in vivo) is recorded as 2 of the 104 patients. Also, the “subjects who responded to treatment” value in [1] (various dosage forms) was 92 of the 104 subjects. In addition, the “replication of W55R mutant in presence of clemizole” value in series [2] is listed as “unaffected”. Besides, the “inhibitory effect on binding of HuR to the consensus 4A RNA sequence” value in series [3] was “No inhibitory effect”. Also, the “HCV viral load after clemizole monotherapy” value in series [4] (100 mg po BID, week 4, 3 patients) was “nearly at or below the limit of HCV detection; also recorded: completely, or nearly, undetectable”. Further, in series [4] (4 weeks monotherapy plus 4 weeks clemizole-standard dose pegylated interferon), the “HCV viral load after clemizole monotherapy plus clemizole with pegylated interferon” value is given as “below the limit of detection”. Besides, in [5] (40 to 160 mg/day), the “patients reporting excellent relief of itching” value was 66% and the “patients reporting good relief of itching” value was 23%. Moreover, the “patients with mild side effects” value in [5] (drowsiness most common) is on record as 4 patients. Besides, the “difference between IC50 for in vitro RNA binding and EC50 for antiviral effect in cells” value in series [6] was about 400 fold. The “effect of adding clemizole to SCH503034 on inhibition of HCV replication” value in series [6] (SCH503034 1-5 micromolar, 72 hours, FIGS. 1A and 1B) is on record as “increase the inhibition of HCV replication in a dose-dependent manner by up to several logs”. In addition, the “reduction of RNA binding, wild type NS4B” value in series [7] is listed as about 2 fold. Also, the “toxicity to the cell in the real-time PCR experiment” value in [8] was “no measurable toxicity to the cell”. In [9], the “reduction of RNA binding, W55R mutant NS4B” value is about 2 fold.
